“And” between values parts separate entries of the source, which are not always exact repeats. Equal entries are not always repeated. “Also recorded” adds a separate entry of the source. Structures can show the parent of a compound that is named as a salt.
Columns and labels:
[1] = Equilibrium aqueous solubility from solid; assay type: physicochemical; settings: H20, room temperature overnight; for solubility: water, thermodynamic from solid
Method: Samples of the ocinaplon salts shown above were evaluated for equilibrium aqueous solubility from solid. Duplicate samples of ocinaplon were accurately weighed and diluted to 1 ml with water to 6.83 mg/ml and 6.43 mg/ml. Duplicate samples of Ocinaplon di HCl salt were accurately weighed and diluted to 1 ml with water to 5.5 mg/ml and 6.0 mg/ml. Ocinaplon di HBr salt was accurately weighed and diluted to 1 ml with water to 6.1 mg/ml and 5.8 mg/ml. Ocinaplon disulfate salt was accurately weighed and diluted to 1 ml with water to 7.5 mg/ml and 6.5 mg/ml. Any change in pH of the water following sample addition was recorded. After equilibration at room temperature overnight the solutions were filtered and solute concentration determined by fast gradient HPLC with UV/VIS/MS detection with reference to 5, 10, 50, 100 and 250 μM analytical standards. Prior to sample filtration, filters were primed with 600 μl of sample to resolve potential adsorption problems. Both sample replicates were collected through the primed filter. Duplicate determinations were made in all cases.

[2] = Pharmacokinetics of different salt forms of ocinaplon after a single oral dose; assay type: in vivo; settings: male beagle dogs; for Tmax / half-life / AUC(0-t) / AUC(0-inf) / Cmax: dog, plasma, single oral dose 30 mg Base/kg, 0.5% methylcellulose suspension, mean (CV %), N = 5; for AUC of ocinaplon relative to an equivalent amount of the free base / Cmax of ocinaplon relative to an equivalent amount of the free base / variability in plasma levels of ocinaplon compared to the free base / variability in the AUC (CV %) compared to the free base: oral 30 mg free base/kg; for AUC(0-t) / AUC(0-inf) / Cmax: male, beagle, po
Method: The test compounds were prepared in 0.5% methylcellulose. The target concentrations of the free base and HBr salt were 1.0 and 1.34 mg/mL (equivalent to 1 mg of the free base), respectively. The liquid suspensions were administered via oral gavage. Prior to removing the gavage tube, the tube was flushed with approximately 5 mL of water.
Blood (approximately 2 mL) was collected from a jugular vein via syringe and needle and transferred into tubes containing K2EDTA anticoagulant predose and at 0.5, 1, 2, 3, 4, 6, 8, 12, and 24 hours postdose. Blood was maintained on wet ice, in chilled Kryoracks, or at approximately 5° C. prior to centrifugation to obtain plasma. Centrifugation began within 1 hour of collection. Plasma was placed on dry ice prior to storage at approximately −70° C. Plasma samples, remaining test compounds, and remaining dose formulations were shipped on dry ice to the analysis site and stored at approximately −70° C. before and after analysis. Samples were analyzed using an LC/MS/MS method. Plasma concentration-time data for each dog and formulation were analyzed using a noncompartmental model assumption with WinNonlin, version 4.1 (Pharsight Corporation, Mountain View, Calif.). All calculations were based on the nominal times as actual sample collection times departed minimally from the schedule times.
The pharmacokinetic parameters of different pyrazolopyrimidine acid salts vary in an apparently salt and compound dependent fashion. This is illustrated by a comparison of the pharmacokinetic properties of different acid salts of the pyrazolopyrimidine, ocinaplon. This study was performed in a manner similar to the study described in Example 9 hereinabove. The concentrations of the HCl, HBr and disulfate salts of ocinaplon were 3.72 mg/mL, 4.61 mg/mL and 4.95 mg/mL, respectively. All concentrations were calculated to be 3.0 mg free base/mL; the dose volume was […]. […] […] These findings exemplify and underscore the differences in pharmacokinetic profiles among these three exemplary salts of ocinaplon.

| SMILES | solubility [1] | Tmax ([2]; 30 mg/kg) [min] | half-life ([2]; 30 mg/kg) [min] | AUC of ocinaplon relative to an equivalent amount of the free base [2] | Cmax of ocinaplon relative to an equivalent amount of the free base [2] | variability in plasma levels of ocinaplon compared to the free base [2] | variability in the AUC (CV %) compared to the free base [2] | AUC(0-t) ([2]; 30 mg Base/kg) [ng·h/mL] | AUC(0-inf) ([2]; 30 mg/kg) [ng·h/mL] | Cmax ([2]; 30 mg/kg) [ng/mL] | AUC(0-t) ([2]; 30 mg/kg) [ng·h/mL] | Equilibrium Aqueous Solubility from Solid [1] |
| --- | --- | --- | --- | --- | --- | --- | --- | --- | --- | --- | --- | --- |
| Br.Br.O=C(c1ccccn1)c1cnn2c(-c3ccncc3)ccnc12 [Ocinaplon di HBr] | 11500 µM and 5300 µg/mL | 54 | 49.8 | did not differ | more than two-fold; also recorded: approximately twice | lower variability | dramatically less | 38000 | 38100 | 13600 | – | – |
| Cl.Cl.O=C(c1ccccn1)c1cnn2c(-c3ccncc3)ccnc12 [Ocinaplon di HCl salt] | 12600 µM and 4700 µg/mL | 66 | 63 | almost twice as high | more than two-fold | lower variability | much less variability | – | 57300 | 15000 | 57100 | – |
| O=C(c1ccccn1)c1cnn2c(-c3ccncc3)ccnc12 [Ocinaplon disulfate salt] | – | 48 | 57 | – | more than two-fold | – | – | – | 46400 | 14800 | 46300 | 10.6 mM and 5.3 mg/ml |

From patent US20080045547A1, “Salts And Co-Crystals of Pyrazolopyrimidine Compounds, Compositions Thereof And Methods For Their Production And Use” (priority 2006, published 2008)
